This note sets out measurements from ChEMBL document CHEMBL3045111, “Synthesis and herbicidal activities of novel 3-(substituted benzyloxy or phenoxy)-6-methyl-4-(3-trifluoromethylphenyl)pyridazine derivatives” (2012).

A word on the inhibition: it is the percentage by which the read-out fell short of the control.

The source made the active and inactive calls. The rule behind the calls is not given here.

In assay [1] the test system is Amaranthus retroflexus. As to the kind of experiment: Post-emergence herbicidal activity against one-leaf stage of Amaranthus retroflexus under greenhouse condition at 750 g /ha measured after 24 days by spray method. It counts as functional. As to conditions: 576 h, read-out: GI.
In assay [2] the test system is Brassica rapa subsp. oleifera. Kind of assay: Post-emergence herbicidal activity against one-leaf stage Brassica rapa subsp. oleifera under greenhouse condition at 750 g /ha measured after 24 days by spray method. Conditions: 576 h, read-out: GI. It counts as functional.
Assay [3] relates to Amaranthus retroflexus. Kind of assay: Pre-emergence herbicidal activity against Amaranthus retroflexus under greenhouse condition at 750 g /ha measured after 24 days by spray method. As to conditions: 576 h, read-out: GI. It counts as functional.
Assay [4] concerns Brassica rapa subsp. oleifera. As to the kind of experiment: Post-emergence herbicidal activity against one-leaf stage Brassica rapa subsp. oleifera under greenhouse condition at 300 g /ha measured after 24 days by spray method. It counts as functional. As to conditions: 576 h, read-out: GI.
For assay [5], the system named is Spirodela polyrhiza. Kind of assay: Bleaching herbicidal activity in Spirodela polyrhiza fronds cultured in compound-containing in medium assessed as chlorophyll inhibition at 1 ug/ml after 7 days. It counts as functional. Conditions: 168 h.
Assay [6] has as its system Brassica rapa subsp. oleifera. Kind of assay: Post-emergence herbicidal activity against one-leaf stage Brassica rapa subsp. oleifera under greenhouse condition assessed as complete bleaching of leaves at 150 g /ha measured after 24 days by spray method. It counts as functional, organism-based.
The test system of assay [7] is Digitaria. Kind of assay: Post-emergence herbicidal activity against one-leaf stage of Digitaria adscendens under greenhouse condition at 750 g /ha measured after 24 days by spray method. It counts as functional. As to conditions: in Digitaria adscendens, 576 h, read-out: GI.
Assay [8] concerns Brassica rapa subsp. oleifera. Kind of assay: Post-emergence herbicidal activity against one-leaf stage Brassica rapa subsp. oleifera under greenhouse condition at 600 g /ha measured after 24 days by spray method. It counts as functional. Conditions: 576 h, read-out: GI.
Assay [9] deals with Spirodela polyrhiza. As to the kind of experiment: Bleaching herbicidal activity in Spirodela polyrhiza fronds cultured in compound-containing in medium assessed as chlorophyll inhibition at 10 ug/ml after 7 days. It counts as functional. As to conditions: 168 h.
Assay [10] concerns Digitaria. As to the kind of experiment: Pre-emergence herbicidal activity against Digitaria adscendens under greenhouse condition at 750 g /ha measured after 24 days by spray method. It counts as functional. Conditions: in Digitaria adscendens, 576 h, read-out: GI.
Assay [11] relates to Echinochloa crus-galli. As to the kind of experiment: Post-emergence herbicidal activity against one-leaf stage of Echinochloa crus-galli (barnyard grass) under greenhouse condition at 750 g /ha measured after 24 days by spray method. It counts as functional. Conditions: 576 h, read-out: GI.
The test system of assay [12] is Echinochloa crus-galli. As to the kind of experiment: Pre-emergence herbicidal activity against Echinochloa crus-galli (barnyard grass) under greenhouse condition at 750 g /ha measured after 24 days by spray method. It counts as functional. Conditions: 576 h, read-out: GI.
The subject of assay [13] is Brassica rapa subsp. oleifera. As to the kind of experiment: Post-emergence herbicidal activity against one-leaf stage Brassica rapa subsp. oleifera under greenhouse condition assessed as complete bleaching of leaves at 300 g /ha measured after 24 days by spray method. It counts as functional, organism-based.
Assay [14] has as its system Brassica rapa subsp. oleifera. Kind of assay: Post-emergence herbicidal activity against one-leaf stage Brassica rapa subsp. oleifera under greenhouse condition assessed as complete bleaching of leaves at 600 g /ha measured after 24 days by spray method. It counts as functional, organism-based.
The test system of assay [15] is Brassica rapa subsp. oleifera. As to the kind of experiment: Pre-emergence herbicidal activity against Brassica rapa subsp. oleifera under greenhouse condition at 750 g /ha measured after 24 days by spray method. It counts as functional. As to conditions: 576 h, read-out: GI.
In assay [16] the test system is Brassica rapa subsp. oleifera. As to the kind of experiment: Post-emergence herbicidal activity against one-leaf stage Brassica rapa subsp. oleifera under greenhouse condition at 150 g /ha measured after 24 days by spray method. Conditions: 576 h, read-out: GI. It counts as functional.

On to `Cc1cc(-c2cccc(C(F)(F)F)c2)c(OCc2ccccc2Cl)nn1`, for which the inhibition of growth at 750 g/ha in the assay with Amaranthus retroflexus [1] was 47%; in assay [2], 90%; in the assay on Amaranthus retroflexus [3], 40%; with Digitaria [7], 26%; in the assay on Digitaria [10], 26%; with Echinochloa crus-galli [11], 16%. Besides, the inhibition of growth at 750 g/ha is 0% with Echinochloa crus-galli [12] and 52% in assay [15]. Besides, the inhibition of growth at 300 g/ha in [4] was 96%. For the same molecule, in the assay on Spirodela polyrhiza [5], the inhibition at 1 µg/mL worked out at 59%. Besides, the result in assay [6], in [13] and in [14] was Active. For the same molecule, the inhibition of growth at 600 g/ha in assay [8] worked out at 97%. Also, the inhibition at 10 µg/mL in the assay with Spirodela polyrhiza [9] came out at 93%. Besides, the inhibition of growth at 150 g/ha in assay [16] stood at 57%.
In the case of `Cc1cc(-c2cccc(C(F)(F)F)c2)c(OCc2ccccc2C(F)(F)F)nn1`, the inhibition of growth at 750 g/ha was 46% in the assay with Amaranthus retroflexus [1]; 93% in [2]; 16% in the assay on Amaranthus retroflexus [3]; 8% in the assay with Digitaria [7]; 2% in the assay with Digitaria [10]; 14% in the assay on Echinochloa crus-galli [11]. Also, the inhibition of growth at 750 g/ha in the assay on Echinochloa crus-galli [12] turned out to be 17%; in assay [15], 28%. For the same molecule, in assay [4], the inhibition of growth at 300 g/ha was 49%. The inhibition at 1 µg/mL in the assay with Spirodela polyrhiza [5] is 73%. Further, the result in assay [6], in assay [13] and in [14] was Active. Moreover, in assay [8], the inhibition of growth at 600 g/ha is 92%. Further, the inhibition at 10 µg/mL in the assay on Spirodela polyrhiza [9] was 76%. Further, the inhibition of growth at 150 g/ha in assay [16] is 38%.
Turning to `Cc1cc(-c2cccc(C(F)(F)F)c2)c(Oc2ccccc2-c2ccccc2)nn1`, the inhibition of growth at 750 g/ha in the assay with Amaranthus retroflexus [1] was found to be 25%; in assay [2], 0%; in the assay with Amaranthus retroflexus [3], 18%; in the assay on Digitaria [7], 0%; in the assay on Digitaria [10] it was 0%; with Echinochloa crus-galli [11] it was 0%. Besides, the inhibition of growth at 750 g/ha (in the assay with Echinochloa crus-galli [12]; in assay [15]) was 0% throughout. In addition, in the assay on Spirodela polyrhiza [5], the inhibition at 1 µg/mL is 29%. Besides, in the assay on Spirodela polyrhiza [9], the inhibition at 10 µg/mL worked out at 33%.
Regarding `Cc1cc(-c2cccc(C(F)(F)F)c2)c(Oc2ccccc2C)nn1`, the inhibition of growth at 750 g/ha stood at 50% in the assay with Amaranthus retroflexus [1]; 55% in [2]; 0% in the assay on Amaranthus retroflexus [3]; 11% in the assay with Digitaria [7]; 7% with Digitaria [10]; 24% in the assay with Echinochloa crus-galli [11]. Further, the inhibition of growth at 750 g/ha (with Echinochloa crus-galli [12]; in assay [15]) was 0% in each case. Also, in the assay on Spirodela polyrhiza [5], the inhibition at 1 µg/mL was determined as 8%. The inhibition at 10 µg/mL with Spirodela polyrhiza [9] was determined as 73%.
On to `Cc1cc(-c2cccc(C(F)(F)F)c2)c(OCc2ccc(Cl)cc2)nn1`, for which the inhibition of growth at 750 g/ha was 45% in the assay on Amaranthus retroflexus [1]; 72% in assay [2]; 9% with Amaranthus retroflexus [3]; 0% in the assay on Digitaria [7]; 6% in the assay on Digitaria [10]; 0% with Echinochloa crus-galli [11]. For the same molecule, the inhibition of growth at 750 g/ha in the assay on Echinochloa crus-galli [12] was found to be 21%; in [15], 17%. Moreover, the inhibition at 1 µg/mL with Spirodela polyrhiza [5] was 53%. Besides, the inhibition at 10 µg/mL in the assay on Spirodela polyrhiza [9] was 66%.
On to `COc1ccccc1COc1nnc(C)cc1-c1cccc(C(F)(F)F)c1`, for which the inhibition of growth at 750 g/ha came out at 25% with Amaranthus retroflexus [1]; 16% in assay [2]; 0% with Amaranthus retroflexus [3]; 10% with Digitaria [7]; 33% in the assay on Digitaria [10]; 1% with Echinochloa crus-galli [11]. The inhibition of growth at 750 g/ha (in the assay on Echinochloa crus-galli [12]; in [15]) was 0% throughout. Further, the inhibition at 1 µg/mL with Spirodela polyrhiza [5] is 18%. Moreover, the inhibition at 10 µg/mL with Spirodela polyrhiza [9] is 72%.
Consider `Cc1cc(C)cc(COc2nnc(C)cc2-c2cccc(C(F)(F)F)c2)c1`, for which the inhibition of growth at 750 g/ha was found to be 10% in the assay on Amaranthus retroflexus [1]; 36% in [2]; 2% with Amaranthus retroflexus [3]; 24% in the assay on Digitaria [7]; 0% in the assay with Digitaria [10]; 11% in the assay on Echinochloa crus-galli [11]. Further, the inhibition of growth at 750 g/ha with Echinochloa crus-galli [12] came out at 1%; in assay [15], 0%. In addition, the inhibition at 1 µg/mL with Spirodela polyrhiza [5] amounted to 0%. The inhibition at 10 µg/mL in the assay on Spirodela polyrhiza [9] turned out to be 71%.
`Cc1cc(-c2cccc(C(F)(F)F)c2)c(Oc2ccccc2F)nn1`: the inhibition of growth at 750 g/ha in the assay with Amaranthus retroflexus [1] was 73%; in [2] it was 69%; in the assay with Amaranthus retroflexus [3] it was 23%; in the assay with Digitaria [7], 16%; with Digitaria [10], 11%; in the assay on Echinochloa crus-galli [11] it was 5%. The inhibition of growth at 750 g/ha in the assay with Echinochloa crus-galli [12] worked out at 6%; in assay [15], 4%. For the same molecule, the inhibition at 1 µg/mL in the assay with Spirodela polyrhiza [5] is 63%. The inhibition at 10 µg/mL in the assay on Spirodela polyrhiza [9] came to 66%.
On to `Cc1ccc(Oc2nnc(C)cc2-c2cccc(C(F)(F)F)c2)c(C)c1`, for which the inhibition of growth at 750 g/ha was determined as 64% with Amaranthus retroflexus [1]; 45% in assay [2]; 0% in the assay on Amaranthus retroflexus [3]; 19% in the assay on Digitaria [7]; 0% in the assay on Digitaria [10]; 18% in the assay with Echinochloa crus-galli [11]. For the same molecule, the inhibition of growth at 750 g/ha with Echinochloa crus-galli [12] was 15%; in assay [15] it was 0%. In addition, in the assay on Spirodela polyrhiza [5], the inhibition at 1 µg/mL amounted to 0%. Moreover, the inhibition at 10 µg/mL in the assay with Spirodela polyrhiza [9] came out at 41%.
In the case of `Cc1cc(-c2cccc(C(F)(F)F)c2)c(OCc2ccccc2F)nn1`, the inhibition of growth at 750 g/ha turned out to be 39% with Amaranthus retroflexus [1]; 79% in [2]; 4% in the assay with Amaranthus retroflexus [3]; 0% with Digitaria [7]; 10% in the assay on Digitaria [10]; 19% in the assay with Echinochloa crus-galli [11]. The inhibition of growth at 750 g/ha stood at 13% with Echinochloa crus-galli [12] and 28% in [15]. In addition, the inhibition at 1 µg/mL in the assay with Spirodela polyrhiza [5] turned out to be 65%. Also, the inhibition at 10 µg/mL with Spirodela polyrhiza [9] stood at 71%.
In the case of `Cc1cc(-c2cccc(C(F)(F)F)c2)c(Oc2ccccc2C(F)(F)F)nn1`, the inhibition of growth at 750 g/ha in the assay with Amaranthus retroflexus [1] was determined as 3%; in assay [2], 46%; in the assay on Amaranthus retroflexus [3], 0%; with Digitaria [7], 0%; with Digitaria [10], 0%; in the assay on Echinochloa crus-galli [11] it was 12%. Further, the results for the inhibition of growth at 750 g/ha (in the assay with Echinochloa crus-galli [12]; in assay [15]) were 11% and 10%, respectively. Further, the inhibition at 1 µg/mL in the assay with Spirodela polyrhiza [5] amounted to 32%. In addition, the inhibition at 10 µg/mL with Spirodela polyrhiza [9] turned out to be 37%.
